Assay results as given in PubChem BioAssay AID1963980 (Molecular Pharmacology Branch, DTP, NCI, 2024).

System: 475296-252-R-J1-PDC spheroid viability
Assay: Anticancer human tumor 475296-252-R-J1-PDC patient-derived rectal carcinoma cell line growth inhibition [PI3K]
Details: spheroids with HUVEC and MSC; for IC50: curve of first compound; for viability, T/C: stronger effect = lower value
Summary of the method: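 Complex 3D spheroids (cancer cells + endothelial HUVEC + mesenchymal stem cells); drug pairs of targeted agent x inavolisib/alpelisib/duvelisib/copanlisib; half-log series from ~Cmax, max 10 microM if Cmax unknown; endpoint viability.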

[1] = second compound 0.00316 µM, first compound 0.000316 µM
[2] = second compound 0.00316 µM, first compound 0.001 µM
[3] = second compound 0.00316 µM, first compound 0.00316 µM
[4] = second compound 0.00316 µM, first compound 0.01 µM
[5] = second compound 0.00316 µM, first compound 0.0316 µM
[6] = second compound 0.00316 µM, first compound 0.1 µM
[7] = second compound 0.01 µM, first compound 0.000316 µM
[8] = second compound 0.01 µM, first compound 0.001 µM
[9] = second compound 0.01 µM, first compound 0.00316 µM
[10] = second compound 0.01 µM, first compound 0.01 µM
[11] = second compound 0.01 µM, first compound 0.0316 µM
[12] = second compound 0.01 µM, first compound 0.1 µM
[13] = second compound 0.0316 µM, first compound 0.000316 µM
[14] = second compound 0.0316 µM, first compound 0.001 µM
[15] = second compound 0.0316 µM, first compound 0.00316 µM
[16] = second compound 0.0316 µM, first compound 0.01 µM
[17] = second compound 0.0316 µM, first compound 0.0316 µM
[18] = second compound 0.0316 µM, first compound 0.1 µM
[19] = second compound 0.1 µM, first compound 0.000316 µM
[20] = second compound 0.1 µM, first compound 0.001 µM
[21] = second compound 0.1 µM, first compound 0.00316 µM
[22] = second compound 0.1 µM, first compound 0.01 µM
[23] = second compound 0.1 µM, first compound 0.0316 µM
[24] = second compound 0.1 µM, first compound 0.1 µM
[25] = second compound 0.316 µM, first compound 0.000316 µM
[26] = second compound 0.316 µM, first compound 0.001 µM
[27] = second compound 0.316 µM, first compound 0.00316 µM
[28] = second compound 0.316 µM, first compound 0.01 µM
[29] = second compound 0.316 µM, first compound 0.0316 µM
[30] = second compound 0.316 µM, first compound 0.1 µM
[31] = second compound 1 µM, first compound 0.000316 µM
[32] = second compound 1 µM, first compound 0.001 µM
[33] = second compound 1 µM, first compound 0.00316 µM
[34] = second compound 1 µM, first compound 0.01 µM
[35] = second compound 1 µM, first compound 0.0316 µM
[36] = second compound 1 µM, first compound 0.1 µM
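Further: spheroids exposed to agents for seven days before readout.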

**Q.** Which results are given for `CC(=O)c1c(C)c2cnc(Nc3ccc(N4CCNCC4)cn3)nc2n(C2CCCC2)c1=O` + COc1c(OCCCN2CCOCC2)ccc2c3n(c(=NC(=O)c4cnc(N)nc4)nc12)CCN3?
**A.** IC50 (second compound 0.00316 µM): > 100 nM; IC50 (second compound 0.01 µM): > 100 nM; IC50 (second compound 0.0316 µM): > 100 nM; IC50 (second compound 0.1 µM): > 100 nM; IC50 (second compound 0.316 µM): > 100 nM; IC50 (second compound 1 µM): > 100 nM; viability, T/C [1]: 108%; viability, T/C [2]: 101%; viability, T/C [3]: 104%; viability, T/C [4]: 119%; viability, T/C [5]: 113%; viability, T/C [6]: 108%; viability, T/C [7]: 97.4%; viability, T/C [8]: 99.5%; viability, T/C [9]: 95.9%; viability, T/C [10]: 99.5%; viability, T/C [11]: 98.5%; viability, T/C [12]: 99.8%; viability, T/C [13]: 96.2%; viability, T/C [14]: 86%; viability, T/C [15]: 90.5%; viability, T/C [16]: 98.7%; viability, T/C [17]: 105%; viability, T/C [18]: 99.8%; viability, T/C [19]: 77.8%; viability, T/C [20]: 82.3%; viability, T/C [21]: 97.6%; viability, T/C [22]: 77.8%; viability, T/C [23]: 83.9%; viability, T/C [24]: 84.1%; viability, T/C [25]: 71.6%; viability, T/C [26]: 75.5%; viability, T/C [27]: 70.7%; viability, T/C [28]: 72.6%; viability, T/C [29]: 82.8%; viability, T/C [30]: 84.6%; viability, T/C [31]: 60.7%; viability, T/C [32]: 56.7%; viability, T/C [33]: 69.3%; viability, T/C [34]: 61.5%; viability, T/C [35]: 59.7%; viability, T/C [36]: 52.4%

**Q.** For `CC(C)n1nc(-c2ccc3oc(N)nc3c2)c2c(N)ncnc21` + COc1c(OCCCN2CCOCC2)ccc2c3n(c(=NC(=O)c4cnc(N)nc4)nc12)CCN3, which IC50 (second compound 0.00316 µM) is on record?
**A.** > 100 nM

**Q.** And the IC50 (second compound 0.01 µM)?
**A.** > 100 nM

**Q.** What about the IC50 (second compound 0.0316 µM) of the same compound?
**A.** > 100 nM

**Q.** And the IC50 (second compound 0.1 µM)?
**A.** 98.7 nM

**Q.** What about the IC50 (second compound 0.316 µM) of the same compound?
**A.** 49 nM

**Q.** And the IC50 (second compound 1 µM)?
**A.** 34.4 nM

**Q.** What about the viability, T/C [1] of the same compound?
**A.** 96.8%

**Q.** What about the viability, T/C [2] of the same compound?
**A.** 99.5%

**Q.** And the viability, T/C [3]?
**A.** 84.6%

**Q.** And the viability, T/C [4]?
**A.** 73.2%

**Q.** What about the viability, T/C [5] of the same compound?
**A.** 81.4%

**Q.** What about the viability, T/C [6] of the same compound?
**A.** 56.9%

**Q.** What about the viability, T/C [7] of the same compound?
**A.** 96.5%

**Q.** What about the viability, T/C [8] of the same compound?
**A.** 90.7%

**Q.** And the viability, T/C [9]?
**A.** 97.4%

**Q.** And the viability, T/C [10]?
**A.** 92%

**Q.** And the viability, T/C [11]?
**A.** 75.2%

**Q.** And the viability, T/C [12]?
**A.** 64.3%

**Q.** And the viability, T/C [13]?
**A.** 91.4%

**Q.** What about the viability, T/C [14] of the same compound?
**A.** 85.8%

**Q.** What about the viability, T/C [15] of the same compound?
**A.** 101%

**Q.** And the viability, T/C [16]?
**A.** 82%

**Q.** And the viability, T/C [17]?
**A.** 81.9%

**Q.** And the viability, T/C [18]?
**A.** 51.7%

**Q.** And the viability, T/C [19]?
**A.** 95.2%

**Q.** What about the viability, T/C [20] of the same compound?
**A.** 84.8%

**Q.** What about the viability, T/C [21] of the same compound?
**A.** 78.8%

**Q.** What about the viability, T/C [22] of the same compound?
**A.** 79.6%

**Q.** And the viability, T/C [23]?
**A.** 68.8%

**Q.** What about the viability, T/C [24] of the same compound?
**A.** 48.3%

**Q.** What about the viability, T/C [25] of the same compound?
**A.** 71.7%

**Q.** And the viability, T/C [26]?
**A.** 67.6%

**Q.** And the viability, T/C [27]?
**A.** 68.2%

**Q.** And the viability, T/C [28]?
**A.** 73%

**Q.** And the viability, T/C [29]?
**A.** 56.5%

**Q.** And the viability, T/C [30]?
**A.** 35.2%

**Q.** And the viability, T/C [31]?
**A.** 60.8%

**Q.** And the viability, T/C [32]?
**A.** 56.7%

**Q.** What about the viability, T/C [33] of the same compound?
**A.** 59.5%

**Q.** And the viability, T/C [34]?
**A.** 55.6%

**Q.** What about the viability, T/C [35] of the same compound?
**A.** 51.6%

**Q.** What about the viability, T/C [36] of the same compound?
**A.** 35.6%

**Q.** How did the IC50 (second compound 0.00316 µM) turn out when `CCCS(=O)(=O)Nc1ccc(F)c(C(=O)c2c[nH]c3ncc(-c4ccc(Cl)cc4)cc23)c1F` + COc1c(OCCCN2CCOCC2)ccc2c3n(c(=NC(=O)c4cnc(N)nc4)nc12)CCN3 was run?
**A.** > 10000 nM

**Q.** And the IC50 (second compound 0.01 µM)?
**A.** > 10000 nM

**Q.** What about the IC50 (second compound 0.0316 µM) of the same compound?
**A.** > 10000 nM

**Q.** And the IC50 (second compound 0.1 µM)?
**A.** > 10000 nM

**Q.** And the IC50 (second compound 0.316 µM)?
**A.** > 10000 nM

**Q.** What about the IC50 (second compound 1 µM) of the same compound?
**A.** > 10000 nM

**Q.** What about the viability, T/C [5] of the same compound?
**A.** 102%

**Q.** What about the viability, T/C [6] of the same compound?
**A.** 85.2%

**Q.** What about the viability, T/C (second compound 0.00316 µM, first compound 0.316 µM) of the same compound?
**A.** 98.7%

**Q.** And the viability, T/C (second compound 0.00316 µM, first compound 1 µM)?
**A.** 103%

**Q.** What about the viability, T/C (second compound 0.00316 µM, first compound 3.16 µM) of the same compound?
**A.** 98.4%

**Q.** What about the viability, T/C (second compound 0.00316 µM, first compound 10 µM) of the same compound?
**A.** 105%

**Q.** And the viability, T/C [11]?
**A.** 94%

**Q.** And the viability, T/C [12]?
**A.** 99.5%

**Q.** What about the viability, T/C (second compound 0.01 µM, first compound 0.316 µM) of the same compound?
**A.** 87.7%

**Q.** What about the viability, T/C (second compound 0.01 µM, first compound 1 µM) of the same compound?
**A.** 86.9%

**Q.** And the viability, T/C (second compound 0.01 µM, first compound 3.16 µM)?
**A.** 94.2%

**Q.** And the viability, T/C (second compound 0.01 µM, first compound 10 µM)?
**A.** 100%

**Q.** And the viability, T/C [17]?
**A.** 91.9%

**Q.** And the viability, T/C [18]?
**A.** 91.1%

**Q.** What about the viability, T/C (second compound 0.0316 µM, first compound 0.316 µM) of the same compound?
**A.** 93.8%

**Q.** And the viability, T/C (second compound 0.0316 µM, first compound 1 µM)?
**A.** 94.8%

**Q.** And the viability, T/C (second compound 0.0316 µM, first compound 3.16 µM)?
**A.** 83.2%

**Q.** And the viability, T/C (second compound 0.0316 µM, first compound 10 µM)?
**A.** 87.4%

**Q.** What about the viability, T/C [23] of the same compound?
**A.** 83%

**Q.** And the viability, T/C [24]?
**A.** 80%

**Q.** What about the viability, T/C (second compound 0.1 µM, first compound 0.316 µM) of the same compound?
**A.** 84.5%

**Q.** What about the viability, T/C (second compound 0.1 µM, first compound 1 µM) of the same compound?
**A.** 78.8%

**Q.** What about the viability, T/C (second compound 0.1 µM, first compound 3.16 µM) of the same compound?
**A.** 66.4%

**Q.** And the viability, T/C (second compound 0.1 µM, first compound 10 µM)?
**A.** 71.3%

**Q.** What about the viability, T/C [29] of the same compound?
**A.** 67.6%

**Q.** And the viability, T/C [30]?
**A.** 69.8%

**Q.** What about the viability, T/C (second compound 0.316 µM, first compound 0.316 µM) of the same compound?
**A.** 64.9%

**Q.** What about the viability, T/C (second compound 0.316 µM, first compound 1 µM) of the same compound?
**A.** 70.2%

**Q.** And the viability, T/C (second compound 0.316 µM, first compound 3.16 µM)?
**A.** 57.5%

**Q.** And the viability, T/C (second compound 0.316 µM, first compound 10 µM)?
**A.** 64.6%

**Q.** What about the viability, T/C [35] of the same compound?
**A.** 62.5%

**Q.** What about the viability, T/C [36] of the same compound?
**A.** 64.1%

**Q.** What about the viability, T/C (second compound 1 µM, first compound 0.316 µM) of the same compound?
**A.** 79.8%

**Q.** And the viability, T/C (second compound 1 µM, first compound 1 µM)?
**A.** 57.9%

**Q.** What about the viability, T/C (second compound 1 µM, first compound 3.16 µM) of the same compound?
**A.** 73.3%

**Q.** What about the viability, T/C (second compound 1 µM, first compound 10 µM) of the same compound?
**A.** 58.1%
